This is an account of results in publication PMC8620685, “Effect of Selected Silyl Groups on the Anticancer Activity of 3,4-Dibromo-5-Hydroxy-Furan-2(5H)-One Derivatives” (Pharmaceuticals, 2021).

In one data set the test system is HCT 116 wt. The data set can be described thus: MTT assay, HCT 116 wt. In kind it is cell-based, human. On the procedure:
(§1) The in vitro antitumor activities of the MBA and its derivatives (Table 2) were assayed against a panel of human cancer cell lines (HCT116, HCT-116 ^−/−p53, HT-29, MCF-7, SJSA-1, U2OS, HepG2 and Hep3B) using the MTT assay. As a reference drug we used 5-fluorouracil (5-FU). […] On the basis of in vitro antiproliferative activities, compounds 3b and 3c were selected for further mechanistic studies in the HCT-116 cell line.
(§2) Human cells lines: colon cancer (HCT-116 wt, HT-29), non-small lung carcinoma (A549), and bronchial epithelial cells (BEAS-2B) were obtained from American Type Culture Collection (ATCC, Manassas, VA, USA). Isogenic cell line HCT 116 p53^−/− (deleted both p53 alleles) were a gift from Dr. Bert Vogelstein. Other cell lines, namely MCF-7, SJSA-1, U2OS, HepG2, and Hep3B were received from the collection stored at Centre of Biotechnology of Silesian University of Technology. All cells were grown in DMEM with a high glucose medium (Sigma-Aldrich, Taufkirchen, Germany) supplemented with 10% (v/v) inactivated fetal bovine serum (FBS) (EURx, Gdańsk, Poland) and 1% antibiotics (10,000 μg/mL of streptomycin and 10,000 units/ml of penicillin) (Sigma-Aldrich, Taufkirchen, Germany) at 37 °C in humidified 5% CO2. The maximum concentration of DMSO in the culture media was 0.4%.
(§3) 5 × 10^3 cells per well for the MCF-7 cell line and 2.5 × 10^3 cells per well for the other cell lines were seeded in 96-well plates to adhere for 24 h. Afterward, the cells were treated with tested compounds. After 72 hours of incubation, 50 μL 0.5 mg/ml solution of MTT (3-(4,5-dimethylthiazol-2-yl)-2,5-diphenyl-2H-tetrazolium bromide) were added to each well and the plates were incubated for 3 h at 37 °C. Next, the MTT solution was removed from the plates and formed formazan crystals were dissolved in 2-propanol (Avantor Performance Materials, Gliwice, Poland) containing 0.04 M hydrochloric acid (Avantor Performance Materials, Gliwice, Poland). The absorbance was measured at 570 nm wavelength using a multiwall plate reader (BioTek, Winooski, VT, USA). The experiment was performed at a minimum of 3 independent replicates. Cell viability was set as a percentage versus vehicle control. IC50 was defined as a concentration of a drug that decreased cell viability by 50% relative to the untreated control.

The next data set deals with HCT 116 p53−/−. The data set can be described thus: MTT assay, HCT 116 p53−/−. The settings on record: Homo sapiens, read-out: IC50 (cytotoxicity), HCT 116 p53−/−. In kind it is cell-based. As to the method:
as §1, §2, §3
Background: Tetrazolium dyes change colour on reduction, which living cells bring about.

The next data set concerns HT-29. Briefly: MTT assay, HT-29. The settings on record: Homo sapiens, read-out: IC50 (cytotoxicity), HT-29. In kind it is cell-based. As to the method:
as §1, §2, §3

The test system of another data set is MCF-7. Briefly: MTT assay, MCF-7. In kind it is cell-based, human. As to the method: as §1, §2, §3
The next data set has as its system U2OS. Briefly: MTT assay, U2OS. To be noted: Homo sapiens, MTT, 72 h incubation, read-out: IC50 (cytotoxicity), U2OS. The data set is classed as cell-based. As to the method:
as §1, §2, §3

Another data set deals with A549. Briefly: MTT assay, NSCLC cell line A549. To be noted: for IC50: Homo sapiens, A549, MTT, 72 h incubation, read-out: IC50 (cytotoxicity), A549; for SI: selectivity, A549 versus BEAS-2B. In kind it is cell-based, human. On the procedure:
(§4) One of the major drawbacks of currently used anticancer drugs is their low selectivity, which often leads to undesired side effects that may be harmful to patients. Overcoming this challenging task requires special attention at the pre-clinical development level. To check whether silyl group incorporation may affect the selectivity of compounds towards cancer cells, MBA and all its new silyl derivatives were tested for their efficacy on noncancerous BEAS-2B and cancerous A549 cells line. […] In contrast, compounds 3a and 3d were more cytotoxic to A549 cells with SI values 6.05 and 1.72, respectively. Strikingly, those two compounds have similar cLogP values 3.08 and 3.22, respectively.
as §2, §3

Data set [1] is described as follows: MTT assay, normal bronchial epithelium cell line BEAS-2B. In kind it is cell-based. The settings on record: human, BEAS-2B cells (noncancerous bronchial epithelial cells); MTT, 72 h incubation; noncancerous cells; read-out: IC50 (cytotoxicity), BEAS-2B. On the procedure:
as §4, §2, §3

For another data set, the system named is SJSA-1. Briefly: MTT assay, SJSA-1. The data set is classed as cell-based. The settings on record: Homo sapiens, SJSA-1; MTT, 72 h incubation; read-out: IC50 (cytotoxicity), SJSA-1. As to the method:
as §1, §2, §3

In the next data set the test system is HepG2. Briefly: MTT assay, HepG2. To be noted: Homo sapiens, HepG2; MTT, 72 h incubation; read-out: IC50 (cytotoxicity), HepG2. The data set is classed as cell-based. As to the method: as §1, §2
as §3, with “The experiment was performed at a minimum of 3 independent replicates. Cell viability was set as a percentage versus vehicle control. IC50 was defined as a concentration of a drug that decreased cell viability by 50% relative to the untreated control.” left out

The subject of another data set is Hep3B. The data set can be described thus: MTT assay, Hep3B. The data set is classed as cell-based. The settings on record: Homo sapiens, MTT, 72 h incubation, read-out: IC50 (cytotoxicity), Hep3B. As to the method: as §1, §2, §3
The subject of the next data set is HCT-116 cells. The data set can be described thus: Annexin V-FITC/PI apoptosis assay. The data set is classed as cell-based, human. To be noted: HCT-116, statement in discussion. As to the method:
To verify this thesis, we utilized annexin-V/PI double staining of cells, which were subsequently subjected to flow cytometric analysis.
The HCT 116 cells were seeded in 6-well plate (Nunc, ThermoFisher, Waltham, MA, USA) at a density of 5 × 10^4 cells/well and allowed to attach. After 24 h the medium was replaced with tested compounds. The cells were then incubated for 24 h at 37 °C. Next, both floating and adherent cells were harvested and centrifuged at 600× g. The cells were washed with PBS (phosphate buffered saline) (Sigma-Aldrich, Taufkirchen, Germany) and we followed instructions from the manufacturer of the Annexin V-FITC Apoptosis Detection Kit (Biotool, Jupiter, FL, USA). Fluorescence was measured using a Becton Dickinson FACS Aria III sorter (BD Company, San Diego, CA, USA). Experiments were repeated at least twice. Data were analyzed using FCE Express 7 Software (DeNovo Software, Pasadena, CA, USA).

Where [2] appears, read: Homo sapiens, HCT-116, 72 h, read-out: IC50 (cytotoxicity), HCT 116 wt, MTT, 72 h incubation.
Where [3] appears, read: Homo sapiens, MCF7, 72 h, read-out: IC50 (cytotoxicity), MCF-7, MTT, 72 h incubation.

Where two headings read alike, the source gives them in different places.

As for `O=c1[nH]cc(F)c(=O)[nH]1` [5FU, 5-fluorouracil, reference compound], the IC50 in the data set on HCT 116 wt (Homo sapiens, HCT-116, 72 h, MTT, 72 h incubation, read-out: IC50 (cytotoxicity), HCT 116 wt) turned out to be 6300 ± 1000 nM; in the data set on HCT 116 p53−/− (HCT-116, MTT, 72 h incubation), 13.4 ± 1.5 µM; in the data set with HT-29 (HT-29, MTT, 72 h incubation), 32.8 ± 4.7 µM; with MCF-7 (Homo sapiens, MCF7, 72 h, MTT, 72 h incubation, read-out: IC50 (cytotoxicity), MCF-7) it was 29.7 ± 1.4 µM; with U2OS, 89.8 ± 2.1 µM.
For the molecule `CC[Si](CC)(CC)OC1OC(=O)C(Br)=C1Br` (stereo not drawn) [Compound 3d, 3,4-Dibromo-5-(trietylsilyloxy)-furan-2(5H)-one], the IC50 with HCT 116 wt (setting [2]) stood at 1600 ± 400 nM; with HCT 116 p53−/− (HCT-116, 72 h), 4.4 ± 0.4 µM; in the data set with MCF-7 (setting [3]), 89 µM; in the data set on MCF-7 (human, 72 h), 89.2 ± 6 µM; in the data set on A549, 4.7 ± 0.1 µM. In the data set with A549, this molecule showed an SI of 1.72. In addition, the IC50 at 72 h in data set [1] worked out at 8.1 ± 1.2 µM.
On to `CC(C)(C)[Si](C)(C)OC1OC(=O)C(Br)=C1Br` (stereo not drawn) [Compound 3a, 3,4-Dibromo-5-(tert-butyldimethylsilyloxy)-furan-2(5H)-one], for which the IC50 with HCT 116 wt (setting [2]) was found to be 1400 nM; in the data set with HCT 116 wt (human, 72 h), 1300 ± 120 nM; in the data set on HCT 116 p53−/− (HCT-116, 72 h), 21.4 ± 3.4 µM; in the data set with HT-29 (HT-29, 72 h) it was 88.7 ± 8.2 µM; in the data set on MCF-7 (setting [3]) it was 186 ± 14.2 µM; in the data set on SJSA-1 it was 196 ± 5.4 µM. Moreover, the IC50 was 135 ± 6 µM in the data set on HepG2, 135 ± 6.1 µM with Hep3B and 23.4 ± 6.6 µM with A549. The same molecule returned an SI with A549 of 6.05. Besides, in data set [1], the IC50 at 72 h stood at 142 ± 23.1 µM. Moreover, the “induction of apoptosis / cell death in HCT-116” value in the data set on HCT-116 cells was “failed to induce apoptosis”.
